In US9795548B2, “Oral care compositions” (Colgate-Palmolive Company, priority 2012, dated 2017):
In brackets after ≈: the same amount, converted by molar mass.

How the values were obtained:
Assay type in all cases: cell-based
[1] = tested on: PGE2; assay: Mat Tek PGE2 tissue model, anti-inflammatory activity; details: dentifrice slurry 1:4 in PBS, base dentifrice with 1% active; 2 minutes treatment; IL-β about 10 ng/ml
Method: Anti-inflammatory activity of IPM is evaluated using the Mat Tek PGE2 tissue model.
One (1) mL of tissue culture media (supplied by MatTek) is added to each well of a 6-well plate (×4). The plate is incubated overnight (37° C., 5% CO2). Treatment solutions comprising the dentifrice slurries are prepared, wherein the base dentifrice contains 1% isopropyl magnolol. Slurries of the dentifrices are prepared in a 1:4 ratio by weight of dentifrice:phosphate buffered saline (PBS). Slurries are placed on a stir plate for a minimum of 30 minutes to allow the solution to fully homogenize.
The tissue media is prepared by adding IL-β from a frozen stock solution to the tissue culture media. The final concentration of IL-β in the media is about 10 ng/ml.
1 ml of tissue culture media containing IL-β is added to each well of a 6-well plate (×4). […] of treatment solution is then added to the surface of the tissue and let sit for 2 minutes. The treatment solution is removed by aspiration.
The tissue is then washed using about 200 μl of PBS. PBS is then removed by aspiration, and the process is repeated for a total of 3 washes.
Tissue is then transferred the original 6-well plates to new 6-well plates with media containing IL-β. The plates are incubated (37° C., 5% CO2) for between 7 and 24 hours, depending on the active or dentifrice being tested.
The used media from the old 6-well plates is pipetted into a single 24-well plate, for use as a baseline sample. The plates are removed from the incubator and the used media is pipetted from the 6-well plates into a single 24-well plate, for use as a reference sample for the designated time point. The results of this assay are described in Table 3 (below).

[2] = tested on: A. actinomycetemcomitans; assay: Minimum Inhibitory Concentration (MIC), two-fold dilutions in trypticase soy broth; details: Aggregatibacter actinomycetemcomitans, 18-24 hours of incubation
Method: (§1) Minimum Inhibitory Concentration (MIC) values are determined generally according to the following method: A series of two-fold dilutions in trypticase soy broth (Catalog No. 211768; Becton Dickinson, Franklin Lakes N.J.) are prepared in a 96 well plate and a constant amount of bacteria is then added to each well. After 18-24 hours of incubation, bacterial growth is measured with a Spectrophotometric Micro-plate Reader (Powerwave 5×, BioTEK, Winooski Vt.) and the MIC values are determined.
(§2) Table 4 (below) describes the antibacterial efficacy of isopropyl magnolol against various oral pathogens.

[3] = tested on: Fusobcaterium nucleatum; assay: as above
Method: as §1, §2

[4] = tested on: Streptoccus mutans; assay: as above
Method: as §1, §2

[5] = tested on: Streptococcus sanguis; assay: as above; details: 18-24 hours of incubation
Method: as §1, §2

[6] = tested on: Actinomyces viscosus; assay: as above; details: 18-24 hours of incubation
Method: as §1, §2

Structure (SMILES)	PGE2 reduction (%) [1] [%]	MIC [2] [µg/mL]	MIC [3] [µg/mL]	MIC [4] [µg/mL]	MIC [5] [µg/mL]	MIC [6] [µg/mL]
CCCCc1ccc(O)c(-c2cc(CCCC)ccc2O)c1 [Butyl magnolol]	29.98					
CC(C)c1ccc(O)c(-c2cc(C(C)C)ccc2O)c1 [Isopropyl magnolol, 5,5′-diisopropyl-2,2′-dihydroxy biphenol]	90.88	3.9 (≈ 14.4 µM)	0.97 (≈ 3.59 µM)	3.9 (≈ 14.4 µM)	1.95 (≈ 7.21 µM)	3.9 (≈ 14.4 µM)
C=CCc1ccc(O)c(-c2cc(CC=C)ccc2O)c1 [Magnolol, 5,5′-Diallyl-biphenyl-2,2′-diol]	88.23	15.6 (≈ 58.6 µM)	7.8 (≈ 29.3 µM)	15.6 (≈ 58.6 µM)	15.6 (≈ 58.6 µM)	15.6 (≈ 58.6 µM)
